Where a SMILES comes first, the peptide text is derived from it.
Experiments:
Assay type in all cases: cell-based
[1] = tested on: normal human aortic vessel smooth muscle cells (VSMC); test: Influence on calcium channel agonist (Bay K 8644) stimulation of VSMC growth (WST-8); conditions: 48 hours
Method: Inflow of calcium ion which is downstream of Ang II stimulation showing a cell growth promoting action was investigated. […] Then 10 μM of WST-8 was added thereto and amount of water-soluble formazan produced by color reaction for 3 hours at 37° C. in a CO2 incubator was determined by absorbance at 450 nm whereupon cell growth was measured from the synthesized amount of DNA.
Then 10 μM of WST-8 was added thereto and amount of water-soluble formazan produced by color reaction for 3 hours at 37° C. in a CO2 incubator was determined by absorbance at 450 nm whereby cell growth was measured from synthesized amount of DNA.

[2] = tested on: normal human aortic vessel smooth muscle cells (VSMC); test: Influence of VY on VSMC growth in the presence of 5% FBS (Trypan Blue living cell count); conditions: VY 0, 50 and 100 μM, 5 v/v % FBS medium, 5 days at 37° C., FIG. 12
Method: (§1) As to cells, normal human aortic vessel smooth muscle cells (VSMC; Cyro AOSMC (trade name) manufactured by Sanko Junyaku Co.) were used while, as to VY, valyl-tyrosine which was chemically synthesized was used and a calcium channel inhibiting action by VY was confirmed.
VSMC (1×10^5 cell/ml) was pre-incubated for 24 hours in a serum-free medium and transferred to a medium containing 5 v/v % of FBS (fetal bovine serum), 1 w/v % of hEGF (human epidermal growth factor) and 1 w/v % of hEGF-β, then VY was added thereto so as to make its concentrations 0, 50 and 100 μM and incubation of the resulting mixtures was conducted for 5 days at 37° C. in a CO2 incubator. This was stained with Trypan Blue and living cells were counted by a blood corpuscle counter. The result which is made into a graph is FIG. 12 (effect of addition of VY in the presence of 5% FBS).

[3] = tested on: normal human aortic vessel smooth muscle cells (VSMC); test: VY toxicity test on VSMC (WST-8); conditions: 0 mM or 1 mM VY; 48 hours; serum-free; WST-8 absorbance at 450 nm; FIG. 13
Method: as §1
In order to check the toxicity of VY, VSMC was pre-incubated for 24 hours on a serum-free medium on a 96-well plate, 0 mM or 1 mM of VY was added thereto and incubation was conducted for 48 hours. To this was added a solution containing 10 μM of WST-8 (2-(2-methoxy-4-nitrophenyl)-3-(4-nitrophenyl)-5-(2,4-disulfophenyl)-2H-tetrazolium (Cell Counting Kit-8; manufactured by Dojin Kagaku CO.)), color reaction was conducted in a CO2 incubator at 37° C. for 3 hours and the amount of the resulting water-soluble formazan was determined by absorbance at 450 nm where cell growth was measured from the synthesized amount of DNA. The result which was made into a graph is FIG. 13 (VY toxicity test). As a result, it was noted that there was no difference between their cell growths and that VY is non-toxic.

[4] = tested on: normal human aortic vessel smooth muscle cells (VSMC); test: Influence on VSMC growth by Ang II stimulation (WST-8); conditions: 48 hours
Method: as §1
When Ang II (angiotensin II) is added to an incubated liquid of VSMC, cell growth thereof is promoted. It has been known to be due to the fact that Ang II is bonded to an AT1 receptor existing on the surface of VSMC, the bonding signal flows in the cells and, as a result, calcium channel opens and calcium ion flows into the cells. Such a mechanism was utilized to conduct the following experiment.
VSMC was pre-incubated for 24 hours on a serum-free medium on a 96-well plate and three kinds of samples—a control to which no additive was added, a sample to which only Ang II was added in a concentration of 1 μM (Ang II (+)) and a sample to which Ang II and VY were added in concentrations of 1 μM and 1 mM, respectively (Ang II(+)VY(+))—were incubated for 48 hours. Then 10 μM of WST-8 was added thereto and amount of water-soluble formazan resulted by color reaction at 37° C. for 3 hours in a CO2 incubator was measured from absorbance at 450 nm whereupon cell growth was measured form the synthesized amount of DNA. The result which was made into a graph is FIG. 14 (effect of VY on Ang II stimulation).
Further, cell growth when concentration of VY added by the same method was made 0 μM, 1 μM, 10 μM, 100 μM and 1 mM was measured. That is, VSMC was pre-incubated on a serum-free medium for 24 hours on a 96-well plate and six kinds of samples—a control where nothing was added and five samples where Ang II was added in a concentration of 1 μM and VY was further added in concentrations 0 μM, 1 μM, 10 μM, 100 μM and 1 mM—were incubated for 48 hours. Then 10 μM WST-8 was added thereto and amount of water-soluble formazan produced by color reaction at 37° C. for 3 hours in a CO2 incubator was determined from absorbance at 450 nm whereupon cell growth was measured from the synthesized amount of DNA. The result which was made into a graph is FIG. 15 (dependency of VY concentration to VSMC growth by Ang II stimulation).
VSMC was pre-incubated in a serum-free-medium for 24 hours on a 96-well plate, then 1 μM of captopril which is an ACE inhibitor was added thereto and incubation was conducted for 48 hours. Then 10 μM WST-8 was added thereto and amount of water-soluble formazan produced by color reaction for 3 hours was determined from absorbance at 450 nm whereupon cell growth was measured from synthesized amount of DNA. The result which was made into a graph is FIG. 16 (influence of ACE inhibitor on Ang II stimulation).

[5] = tested on: normal human aortic vessel smooth muscle cells (VSMC); test: Influence of VY on Ang II receptor: VSMC growth with Ang II and saralasin (WST-8); conditions: 48 hours, FIG. 17
Method: as §1
Influence of VY on Ang II receptor AT1 existing on the surface of VSMC was investigated. That is, VSMC was pre-incubated in a serum-free medium for 24 hours on a 96-well plate and incubation was conducted for 48 hours after 1 μM of Ang II was added, 10 μM of saralasin which is an Ang II antagonist was added, each 1 μM of Ang II and saralasin were added or each 1 μM of Ang II and saralasin and 1 mM of VY were added. Then 10 μM of WST-8 was added thereto and amount of water-soluble formazan formed by color reaction for 3 hours at 37° C. in a CO2 incubator was determined by absorbance at 450 nm whereby cell growth was measured from the synthesized amount of DNA. The result which was made into a graph is FIG. 17 (effect of VY and saralasin (Ang II antagonist) on Ang II stimulation).

Molecule: COC(=O)C1=C(C)NC(C)=C([N+](=O)[O-])C1c1ccccc1C(F)(F)F (stereo not shown) [Bay K 8644, reference compound]
- cell growth ([1]; Bay K 8644 alone 1 μM, FIG. 18): cell growth was promoted

Molecule: CC(C)[C@H](N)C(=O)N[C@@H](Cc1ccc(O)cc1)C(=O)O [VY, valyl-tyrosine] (H-Val-Tyr-OH)
- cell growth (living cells counted) [2]: cell growth was suppressed in proportion to the added VY concentration
- toxicity (cell growth) [3]: non-toxic
- cell growth under Ang II stimulation ([4]; Ang II 1 μM and VY 1 mM, FIG. 14): cell growth was not promoted
- dependency of VY concentration to VSMC growth by Ang II stimulation ([4]; Ang II 1 μM, VY 0 μM, 1 μM, 10 μM, 100 μM and 1 mM, FIG. 15): suppressive effect to the growth of VSMC by Ang II stimulation in a concentration-depending manner
- cell growth ([5]; each 1 μM of Ang II and saralasin and 1 mM of VY): no growth promoting effect was noted
- cell growth under Bay K 8644 stimulation ([1]; 1 μM of Bay K 8644 and 1 mM of VY, FIG. 18): suppressed cell growth promoting activity as same as in the case of addition of verapamil
- dependency on concentration of VY to Bay K 8644 stimulation (cell growth) ([1]; 1 μM of Bay K 8644 with 0, 10 μM, 100 μM or 1 mM of VY, FIG. 19): suppressive effect to VSMC growth by Bay K 8644 stimulation in a concentration-dependent manner

Molecule: C[C@H](CS)C(=O)N1CCC[C@H]1C(=O)O [captopril, reference compound]
- influence of ACE inhibitor on Ang II stimulation (cell growth) ([4]; captopril 1 μM, FIG. 16): did not show a suppressive action to Ang II stimulation

Molecule: CNCC(=O)N[C@@H](CCCN=C(N)N)C(=O)N[C@H](C(=O)N[C@@H](Cc1ccc(O)cc1)C(=O)N[C@H](C(=O)N[C@@H](Cc1cnc[nH]1)C(=O)N1CCC[C@H]1C(=O)N[C@@H](C)C(=O)O)C(C)C)C(C)C [saralasin]
- cell growth ([5]; each 1 μM of Ang II and saralasin): the growth promotion effect was weak as compared with the case of sole use of saralasin
- cell growth ([5]; saralasin alone, 10 μM): cell growth was promoted although that was not so significant as in the case of addition of Ang II

Molecule: COc1ccc(CCN(C)CCCC(C#N)(c2ccc(OC)c(OC)c2)C(C)C)cc1OC (stereo not shown) [verapamil, reference compound]
- cell growth under Bay K 8644 stimulation ([1]; each 1 μM of Bay K 8644 and verapamil, FIG. 18): suppressed the cell growth promoting activity

Molecule: angiotensin II (DRVYIHPF; Angiotensin-2; UniProt P01019 25-32, looked up) [Ang II, angiotensin II, promotes VSMC growth via AT1 receptor, reference compound]
- cell growth ([4]; Ang II alone 1 μM, FIG. 14): growth was strongly promoted

— patent US20060040872A1, “Calcium channel inhibitor” (SENMI EKISU CO., LTD, priority 2004, published 2006)
